# Laboratory results from US6916846B2, “Coumermycin analogs as chemical dimerizers of chimeric proteins” (Merck & Co. Inc., priority 2000, dated 2005).
# Read-outs that look alike come from different tables or passages of the source.
# What was measured:
# [1] = test system: STAT5b-GyrB fusion proteins
# Protocol: To evaluate the effectiveness of the analogs of the present invention to act as chemical dimerizers of chimeric proteins, a BAF cell proliferation assay was performed.
# BAF Cell Proliferation Assay
# We have transfected BAF Cells with the human IL2 Receptor β chain. These transfected cells respond to human IL-2 by increasing their rate of cellular proliferation. This can be assayed by measuring the amount of tritiated thymidine that these cells incorporate into their DNA. One of the signaling proteins activated by IL-2 is the transcription factor STAT5b. This activation of STAT5b is responsible, in part, for the growth-promoting effects of IL-2.
# STAT5b is activated by dimerization, an event that is dependent on its phosphorylation and which requires interaction of STAT5b with a ligand bound activated receptor. We can mimic this activation of STAT5b by transfecting BAF cells with a fusion protein consisting of the GyrB domain (the24 kDa amino-terminal fragment of bacterial DNA gyrase, amino acids 2-220) fused to the carboxy-terminus of STAT5b. Addition of the symmetrically dimeric antibiotic coumermycin artificially forces the dimerization of STAT5b-GyrB fusion proteins and results in an increased rate of cell growth that can be measured by the cell's ability to incorporate thymidine. This provides an assay to determine the ability of coumermycin analogs to promote dimerization of STAT5b-GyrB fusion proteins.
# The assay is run as follows: BAF cells transfected with the human IL-2 receptor β chain and STAT5b-GyrB are washed twice in phosphate-buffered saline. They are then re-suspended in BAF cell media that lacks IL-2 and placed in a 96-well plate. Increasing amounts of coumermycin, or coumermycin analogs are then added to different wells in a 96-well plate and the cells are incubated overnight. Twenty-four hours later the cell media is spiked with tritiated thymidine and the cells are incubated for an additional 16 hours. The cells are subsequently harvested with a Wallac cell harvester and the amount of tritiated thymidine incorporated is measured using a β scintillation counter.
# Set up for BAF proliferation assay was as follows: Spin down cells and wash one time in PBS. Resuspended in BAF cell media without cytokine at 2×10^5 cells/ml. added 100 μl/well or 2×10^4 cells. The compounds were prepared at 2 mg/ml (equivalent to 1.8 nM±5%). Plates were set up so that each condition equaled 1 row of 12 (n=number of wells/row=12). DMSO being utilized as an initial control Compound 5 was prepared in concentrations of 1.6, 16, 163, 450, and 900 nM, and 1.8 μM in DMSO, and as a second control, IL-2 growth factor was added to coumermycin. Two novenamine anologs, Comparative Compounds (CCmpd) 1 and 2, below were also use in this example as control.
# The compounds were re-suspended in dimethylsulfoxide (DMSO) at a concentration of 2 mg/ml. […] Next, the cells were washed 2 times with PBS. The re-suspended cells were present at a concentration of 1×10^5 cells /ml in BAF media (RPMI, 10% FCS (fetal calf serum), 1% NEAA (non-essential amino acid), 1% L-G-lu, P/S and Hepes) without IL-2, added 100 μl to well (equal to 1×10^4 cells/well).
# The compounds were prepared in as follows: DMSO was used as a control; each of the 5 compounds were combined with DMSO at concentrations of 1.8 μM, 900 nM, 450 nM, 90 nM 9 nM, and 900 nM. As a second control, coumermycin in IL-2 was utilized. Each solution at the aforementioned concentration condition, along with BAF cells, was placed in 1 row (12 wells) of a 96 well plate. Thereafter, 100 μL of compound (twice the concentration) was added to the wells.
# [2] = test system: STAT5b-GyrB fusion proteins; experiment: Inhibition assay in BAF cells, all wells with 90 nM coumermycin; type: cell-based, murine; parameters: unit not given here; details: Table 6
# Protocol: An inhibition assay was also conducted for Compounds 1 and 2. For this assay, all wells contained a DMSO concentration of 90 nM of coumermycin. Compounds 1 and 2 were added at concentrations of 1.8 μM, 900 nM, 90 nM and 9 nM. The conditions of the assay were identical to those referenced early in this example, except that one-third of the amount of 3-H thymidine was used.
# [3] = Table 3, Example 2, 900 pM, 1×10^4 cells/well
# [4] = Table 2, Example 1, stimulus 1.6 nM, 2×10^4 cells/well
# [5] = Table 2, Example 1, stimulus 16.3 nM
# [6] = Table 2, Example 1, stimulus 163 nM
# [7] = Table 2, Example 1, stimulus 450 nM
# [8] = Table 2, Example 1, stimulus 900 nM
# [9] = Table 2, Example 1, stimulus 1.8 μM
Compound,"Prolif. (cpm) [1, 3] [cpm]","Prolif. (cpm) ([1]; Table 3, Example 2, 9 nM)","Prolif. (cpm) ([1]; Table 3, Example 2, 90 nM)","Prolif. (cpm) ([1]; Table 3, Example 2, 450 nM)","Prolif. (cpm) ([1]; Table 3, Example 2, 900 nM)","Prolif. (cpm) ([1]; Table 3, Example 2, 1.8 μM)","Prolif. (cpm) ([1]; Table 7, Example 5, 900 pM)","Prolif. (cpm) ([1]; Table 7, Example 5, 9 nM)","Prolif. (cpm) ([1]; Table 7, Example 5, 90 nM)","Prolif. (cpm) ([1]; Table 7, Example 5, 450 nM)","Prolif. (cpm) ([1]; Table 7, Example 5, 900 nM)","Prolif. (cpm) ([1]; Table 7, Example 5, 1.8 μM)","Prolif. [1, 4]","Prolif. [1, 5]","Prolif. [1, 6]","Prolif. [1, 7]","Prolif. [1, 8]","Prolif. [1, 9]",further results
COC1C(OC(=O)c2ccc(C)[nH]2)C(O)C(Oc2ccc3c(O)c(NC(=O)c4cncc(C(=O)Nc5c(O)c6ccc(OC7OC(C)(C)C(OC)C(OC(=O)c8ccc(C)[nH]8)C7O)c(C)c6oc5=O)c4)c(=O)oc3c2C)OC1(C)C (centres unmarked) [Cmpd 4],20204,19290,19731,20726,22817,23135,,,,,,,,,,,,,
COC1C(OC(=O)c2ccc(C)[nH]2)C(O)C(Oc2ccc3c(O)c(NC(=O)c4ccc(C(=O)Nc5c(O)c6ccc(OC7OC(C)(C)C(OC)C(OC(=O)c8ccc(C)[nH]8)C7O)c(C)c6oc5=O)nc4)c(=O)oc3c2C)OC1(C)C (centres unmarked) [Cmpd 3],16313,16767,19920,22221,22824,21389,,,,,,,,,,,,,
"COC1C(OC(N)=O)C(O)C(Oc2ccc3c(O)c(NC(=O)c4ccc(Oc5ccc(C(=O)Nc6c(O)c7ccc(OC8OC(C)(C)C(OC)C(OC(N)=O)C8O)c(C)c7oc6=O)cc5)cc4)c(=O)oc3c2C)OC1(C)C (centres unmarked) [CCmpd 4, reference compound]",,,,,,,35624,35985,36764,36763,35379,31918,,,,,,,
COC1C(OC(=O)c2ccc(C)[nH]2)C(O)C(Oc2ccc3c(O)c(NC(=O)c4ccc(C(=O)Nc5c(O)c6ccc(OC7OC(C)(C)C(OC)C(OC(=O)c8ccc(C)[nH]8)C7O)c(C)c6oc5=O)cc4)c(=O)oc3c2C)OC1(C)C (centres unmarked) [Cmpd 8],17973,19377,20715,22936,23858,22772,,,,,,,,,,,,,
COC1C(OC(=O)c2ccc(C)[nH]2)C(O)C(Oc2ccc3c(O)c(NC(=O)c4ccc(Oc5ccc(C(=O)Nc6c(O)c7ccc(OC8OC(C)(C)C(OC)C(OC(=O)c9ccc(C)[nH]9)C8O)c(C)c7oc6=O)cc5)cc4)c(=O)oc3c2C)OC1(C)C (centres unmarked) [Cmpd 2],,,,,,,36052,38236,42674,47023,46989,46345,,,,,,,"Prolif. ([2]; Cou. 90 nM plus inhibitor 9 nM): 7654; Prolif. ([2]; Cou. 90 nM plus inhibitor 90 nM): 7316; Prolif. ([2]; Cou. 90 nM plus inhibitor 900 nM): 8068; Prolif. ([2]; Cou. 90 nM plus inhibitor 1800 nM): 8165; Prolif. (cpm) ([1]; Table 5, Example 4, 900 pM): 6014 cpm; Prolif. (cpm) ([1]; Table 5, Example 4, 9 nM): 6031 cpm; Prolif. (cpm) ([1]; Table 5, Example 4, 90 nM): 6623 cpm; Prolif. (cpm) ([1]; Table 5, Example 4, 450 nM): 7513 cpm; Prolif. (cpm) ([1]; Table 5, Example 4, 900 nM): 7798 cpm; Prolif. (cpm) ([1]; Table 5, Example 4, 1.8 μM): 7825 cpm"
"COC1C(OC(N)=O)C(O)C(Oc2ccc3c(O)c(NC(=O)c4cc(=O)cc(C(=O)Nc5c(O)c6ccc(OC7OC(C)(C)C(OC)C(OC(N)=O)C7O)c(C)c6oc5=O)o4)c(=O)oc3c2C)OC1(C)C (centres unmarked) [CCmpd 3, reference compound]",,,,,,,32299,33921,33671,33712,31968,28434,,,,,,,
"COC1C(OC(=O)c2ccc(C)[nH]2)C(O)C(Oc2ccc3c(O)c(NC(=O)c4c[nH]c(C(=O)Nc5c(O)c6ccc(OC7OC(C)(C)C(OC)C(OC(=O)c8ccc(C)[nH]8)C7O)c(C)c6oc5=O)c4C)c(=O)oc3c2C)OC1(C)C (centres unmarked) [Cou., coumermycin]",18071,20551,25219,27515,30752,30664,36503,44455,51248,60293,64831,68728,16137,16261,16836,18842,21057,23199,"Prolif. ([2]; Cou. 90 nM with DMSO in place of inhibitor): 7595; Prolif. ([1]; Table 4, Example 3, 900 pM): 7422; Prolif. ([1]; Table 4, Example 3, 9 nM): 8792; Prolif. ([1]; Table 4, Example 3, 90 nM): 9860; Prolif. ([1]; Table 4, Example 3, 450 nM): 10832; Prolif. ([1]; Table 4, Example 3, 900 nM): 11470; Prolif. ([1]; Table 4, Example 3, 1.8 μM): 12308; Prolif. (cpm) ([1]; Table 5, Example 4, 900 pM): 6063 cpm; Prolif. (cpm) ([1]; Table 5, Example 4, 9 nM): 6750 cpm; Prolif. (cpm) ([1]; Table 5, Example 4, 90 nM): 7595 cpm; Prolif. (cpm) ([1]; Table 5, Example 4, 450 nM): 8457 cpm; Prolif. (cpm) ([1]; Table 5, Example 4, 900 nM): 8636 cpm; Prolif. (cpm) ([1]; Table 5, Example 4, 1.8 μM): 8610 cpm"
COC1C(OC(=O)c2ccc(C)[nH]2)C(O)C(Oc2ccc3c(O)c(NC(=O)COCCOCC(=O)Nc4c(O)c5ccc(OC6OC(C)(C)C(OC)C(OC(=O)c7ccc(C)[nH]7)C6O)c(C)c5oc4=O)c(=O)oc3c2C)OC1(C)C (centres unmarked) [Cmpd 6],,,,,,,,,,,,,14954,14710,13351,12190,12872,10832,
"COC1C(OC(N)=O)C(O)C(Oc2ccc3c(O)c(NC(=O)COCCOCCOCC(=O)Nc4c(O)c5ccc(OC6OC(C)(C)C(OC)C(OC(N)=O)C6O)c(C)c5oc4=O)c(=O)oc3c2C)OC1(C)C (centres unmarked) [CCmpd 2, reference compound]",,,,,,,,,,,,,14761,14459,14516,13568,12281,11676,
COC1C(OC(=O)c2ccc(C)[nH]2)C(O)C(Oc2ccc3c(O)c(NC(=O)c4ccc(C(=O)Nc5c(O)c6ccc(OC7OC(C)(C)C(OC)C(OC(=O)c8ccc(C)[nH]8)C7O)c(C)c6oc5=O)s4)c(=O)oc3c2C)OC1(C)C (centres unmarked) [Cmpd 9],16826,18126,19177,20889,22210,20367,,,,,,,,,,,,,
COC1C(OC(=O)c2ccc(C)[nH]2)C(O)C(Oc2ccc3c(O)c(NC(=O)COCCOCCOCC(=O)Nc4c(O)c5ccc(OC6OC(C)(C)C(OC)C(OC(=O)c7ccc(C)[nH]7)C6O)c(C)c5oc4=O)c(=O)oc3c2C)OC1(C)C (centres unmarked) [Cmpd 5],,,,,,,,,,,,,15270,14277,14139,12732,12315,11751,
COC1C(OC(=O)c2ccc(C)[nH]2)C(O)C(Oc2ccc3c(O)c(NC(=O)c4cc(C(=O)Nc5c(O)c6ccc(OC7OC(C)(C)C(OC)C(OC(=O)c8ccc(C)[nH]8)C7O)c(C)c6oc5=O)[nH]n4)c(=O)oc3c2C)OC1(C)C (centres unmarked) [Cmpd 7],16520,16599,17690,20553,20619,20207,,,,,,,,,,,,,
"COC1C(OC(N)=O)C(O)C(Oc2ccc3c(O)c(NC(=O)COCCOCC(=O)Nc4c(O)c5ccc(OC6OC(C)(C)C(OC)C(OC(N)=O)C6O)c(C)c5oc4=O)c(=O)oc3c2C)OC1(C)C (centres unmarked) [CCmpd 1, reference compound]",,,,,,,,,,,,,15741,14691,13628,12465,11935,11057,
